Test results reported in patent publication US8377422B2, “Carboxamide derivatives having cooling properties” (Givaudan S.A., priority 2007, dated 2013).

Assays:
panelists = test: Cooling intensity: panel tasting of aqueous solutions against menthol at 2 ppm; assay type: in vivo, human; details: for Concentration: aqueous solution with cooling intensity similar to or slightly higher than menthol at 2 ppm, tasted by small group of panelists
panelist = test: Application in toothpaste: cooling sensation after brushing; assay type: in vivo, human; details: toothgel base with 0.10 g of 10% by weight ethanol solution and 0.30 g saccharin; teeth brushed, mouth rinsed with water
Description: 0.10 g of (1R,2S,5R)—N-(2-hydroxy-3-phenoxypropyl)-2-isopropyl-5-methylcyclohexane-carboxamide (at 10% by weight solved in ethanol) and 0.30 g saccharin were mixed in a toothgel base.
A piece of the thus prepared toothpaste was put on a toothbrush and a panelist's teeth were brushed. The mouth was rinsed with water and the water spat out. […] The cooling sensation was perceived for over 50 minutes.

Row | SMILES | Concentration (panelists) | also measured
1 | Cc1ccccc1OCCCNC(=O)[C@@H]1C[C@H](C)CC[C@H]1C(C)C [Example 1, (1R,2S,5R)-2-isopropyl-5-methyl-N-(3-(o-tolyloxy)propyl)cyclohexane-carboxamide] |  | melting point: 89.4 to 91.1 °C
2 | COCCNC(=O)[C@@H]1C[C@H](C)CC[C@H]1C(C)C [(1R,2S,5R)-2-isopropyl-N-(2-methoxyethyl)-5-methylcyclohexanecarboxamide] | 1.0 ppm | 
3 | CCNC(=O)C1CC(C)CCC1C(C)C (stereo not shown) [WS-3, N-ethyl p-menthanecarboxamide] | 1.5 ppm | 
4 | CC(C)[C@@H]1CC[C@@H](C)C[C@H]1C(=O)NCCOc1ccccc1 [Ex. 2.7, (1R,2S,5R)-2-isopropyl-5-methyl-N-(2-phenoxyethyl)cyclohexanecarboxamide] | 0.01 ppm | cooling intensity relative to prior art compound (1R,2S,5R)-2-isopropyl-N-(2-methoxyethyl)-5-methylcyclohexane-carboxamide (panelists; compared with the prior art compound): about 100 times higher
5 | CC1CCC(C(C)C)C(O)C1 (stereo not shown) [I-Menthol] | 2.0 ppm | 
6 | CC(C)[C@@H]1CC[C@@H](C)C[C@H]1C(=O)NCC(O)COc1ccccc1 (stereo partly drawn) [Example 2.2, (1R,2S,5R)—N-(2-hydroxy-3-phenoxypropyl)-2-isopropyl-5-methylcyclohexane-carboxamide] |  | cooling sensation felt by the panelist (panelist): long lasting cooling sensation; duration of perceived cooling sensation (panelist): over 50 minutes
7 | CC(C)OCCCNC(=O)[C@@H]1C[C@H](C)CC[C@H]1C(C)C [(1R,2S,5R)-N-(3-isopropoxypropyl)-2-isopropyl-5-methylcyclohexanecarboxamide] | 0.1 ppm | 
8 | CC(C)[C@@H]1CC[C@@H](C)C[C@H]1C(=O)NCCCOc1ccccn1 [Ex. 2.5, (1R,2S,5R)-2-isopropyl-5-methyl-N-(3-(pyridin-2-yloxy)propyl)cyclohexane-carboxamide] | 0.02 ppm | 
